Reference: patent publication EP0423818B1, “Arylsulfatase” (Bristol-Myers Squibb Company, priority 1989, dated 1991)

System: not given
Experiment: not given
Conditions: background statement; compound disclosed in Japanese Kokai 88/192,793; cited from earlier work

In the case of `COc1cc([C@@H]2c3cc4c(cc3[C@@H](O[C@@H]3O[C@@H]5CO[C@@H](C)O[C@H]5[C@H](O)[C@H]3O)[C@H]3COC(=O)[C@H]23)OCO4)cc(OC)c1OS(=O)(=O)O` [(III), etoposide 4'-sulfate], the “cytotoxicity relative to etoposide” value is listed as “much less cytotoxic than etoposide itself”.

System: sulfatase of the invention
Experiment: Substrate specificity: etoposide derivatives incubated with the enzyme, TLC analysis
Type: biochemical, Streptomyces sp. T109-3
Conditions: substrate 50 µl, 1 mg/ml; enzyme 0.6 u; 37°C for 30 minutes; silica gel TLC
Protocol: (h) Substrate specificity. Four etoposide derivatives were tested as substrate for the sulfatase of the invention. The substrates are: etoposide 4'-sulfate (III), 2",3"-di-O-acetyl-etoposide-4'-sulfate (IV), etoposide 2"-sulfate (V), and etoposide 3"-sulfate (VI). The substrate (50 µl, 1 mg/ml, MeOH:H2O = 1:1, pH 9.0) and the enzyme (50 µl, 0.6 u, 50 mM Tris-HCl, pH 7.5) were mixed and incubated at 37°C for 30 minutes. The mixture was then analyzed on a silica gel TLC plate using a solvent system consisting of chloroform-methanol (10:1 v/v).

In the case of `COc1cc([C@@H]2c3cc4c(cc3[C@@H](O[C@@H]3O[C@@H]5CO[C@@H](C)O[C@H]5[C@H](OC(C)=O)[C@H]3OC(C)=O)[C@H]3COC(=O)[C@H]23)OCO4)cc(OC)c1OS(=O)(=O)O` [(IV), 2",3"-di-O-acetyl-etoposide-4'-sulfate], the “substrate for the enzyme” value was “are not”.
In the case of `COc1cc([C@@H]2c3cc4c(cc3[C@@H](O[C@@H]3O[C@@H]5CO[C@@H](C)O[C@H]5[C@H](O)[C@H]3O)[C@H]3COC(=O)[C@H]23)OCO4)cc(OC)c1OS(=O)(=O)O` [(III), etoposide 4'-sulfate], the “substrate for the enzyme” value was “are not”.

System: Es-2 sulfatase
Experiment: EDTA treatment of the enzyme and recovery of activity by Ca2+
Type: biochemical, Streptomyces sp. T109-3
Conditions: 10 mM of EDTA followed by dialysis against water
Protocol: (a) Optimum pH. The enzyme solution (0.6 u in 50 µl of 50 mM Tris-HCl, pH 7.5) was mixed with 100 µl each of the following buffers: 500 mM sodium acetate (pH 4.0-5.5), 500 mM Tris-maleate (pH 5.5-7.7), 500 mM Tris-HCl (pH 7.5-9.0), and 500 mM glycine-NaOH (pH 9.0-10.0). The substrate, p-nitrophenylsulfate, was similarly dissolved in each of the above buffers (1 mg/ml). A sample (150 µl) from the enzyme solution is mixed with the substrate (50 µl) in the same buffer, and the mixture was incubated for 30 minutes at 37°C. The enzyme activity in each buffer was determined spectrophotometrically by UV at 415 nm. The optimal pH of the enzyme was thus determined to be about 9.0 (Fig. 1A). (b) pH stability. The stock enzyme solution was dialyzed against water to remove salts. The enzyme solution was adjusted to 0.6 u/10 µl with Tris-HCl buffer (pH 7.5). This solution (10 µl) was mixed with 40 µl each of the buffer listed in (a) and incubated for 30 minutes at 30°C. The enzyme sample (50 µl) was mixed with 100 µl of 500 mM Tris-HCl (pH 9.0) and 50 µl of substrate in water (1mg/ml), and the mixture was incubated at 37°C for 30 minutes to determine the residual enzyme activity. […] (c) Optimum temperature. Enzyme (0.6 u) in 150 µl of 50 mM Tris-HCl (pH 9.0) were incubated with p-nitrophenylsulfate (1 mg/ml, 50 µl) in the same buffer (pH 9.0) for 30 minutes at various temperatures (200 µl each). […]

With `O=C(O)CN(CCN(CC(=O)O)CC(=O)O)CC(=O)O` [EDTA] the “sulfatase activity after treatment of the enzyme with EDTA” value was “the sulfatase activity disappeared”.

System: Es-2 sulfatase
Experiment: Effect of salts on sulfatase activity (protocol as for ions)
Type: biochemical, Streptomyces sp. T109-3
Conditions: 5 mM of a salt
Protocol: (§1) (a) Optimum pH. The enzyme solution (0.6 u in 50 µl of 50 mM Tris-HCl, pH 7.5) was mixed with 100 µl each of the following buffers: 500 mM sodium acetate (pH 4.0-5.5), 500 mM Tris-maleate (pH 5.5-7.7), 500 mM Tris-HCl (pH 7.5-9.0), and 500 mM glycine-NaOH (pH 9.0-10.0). The substrate, p-nitrophenylsulfate, was similarly dissolved in each of the above buffers (1 mg/ml). A sample (150 µl) from the enzyme solution is mixed with the substrate (50 µl) in the same buffer, and the mixture was incubated for 30 minutes at 37°C. The enzyme activity in each buffer was determined spectrophotometrically by UV at 415 nm. The optimal pH of the enzyme was thus determined to be about 9.0 (Fig. 1A). (b) pH stability. The stock enzyme solution was dialyzed against water to remove salts. The enzyme solution was adjusted to 0.6 u/10 µl with Tris-HCl buffer (pH 7.5). This solution (10 µl) was mixed with 40 µl each of the buffer listed in (a) and incubated for 30 minutes at 30°C. The enzyme sample (50 µl) was mixed with 100 µl of 500 mM Tris-HCl (pH 9.0) and 50 µl of substrate in water (1mg/ml), and the mixture was incubated at 37°C for 30 minutes to determine the residual enzyme activity. […] (c) Optimum temperature. Enzyme (0.6 u) in 150 µl of 50 mM Tris-HCl (pH 9.0) were incubated with p-nitrophenylsulfate (1 mg/ml, 50 µl) in the same buffer (pH 9.0) for 30 minutes at various temperatures (200 µl each). […] (d) Temperature stability. Enzyme preparations (0.6 u) in 50 mM Tris-HCl (150 µl, pH 9.0) were incubated for 15 minutes at various temperatures and then cooled in an ice bath. p-Nitrophenylsulfate (1 mg/ml, 50 µl) was added to the enzyme solution, and the mixture was incubated for 30 minutes at 37°C. The enzyme was stable below 30°C at pH 9.0 (Fig. 2B). (e) Effect of ions. Enzyme (0.6 u), p-nitrophenyl sulfate 4 mM, and ion 1 mM were dissolved in 200 µl of Tris-HCl (50 mM). The solution was incubated for 30 minutes at 37°C. p-Nitrophenol released was spectrophotometrically assayed by UV at 415 nm. […]
(g) Effect of salts. The protocol used in (e) was followed, except that 5 mM of a salt was used instead of 1 mM of a metal ion. […]

For K2HPO4, the “inhibition of sulfatase activity (in words)” value was “strongly inhibited”.

Same assay, conditions: 5 mM of a salt; p-nitrophenyl sulfate 4 mM; 30 minutes at 37°C

In order of falling “% Inhibit.” value:
1. K2HPO4  100%
2. NaCl  58%
3. (NH4)2SO4  44%
4. K2SO4  36%

System: Es-2 sulfatase
Experiment: Effect of enzyme inhibitors on sulfatase activity (protocol as for ions)
Type: biochemical, Streptomyces sp. T109-3
Conditions: 1000 µM
Protocol: (a) Optimum pH. The enzyme solution (0.6 u in 50 µl of 50 mM Tris-HCl, pH 7.5) was mixed with 100 µl each of the following buffers: 500 mM sodium acetate (pH 4.0-5.5), 500 mM Tris-maleate (pH 5.5-7.7), 500 mM Tris-HCl (pH 7.5-9.0), and 500 mM glycine-NaOH (pH 9.0-10.0). The substrate, p-nitrophenylsulfate, was similarly dissolved in each of the above buffers (1 mg/ml). A sample (150 µl) from the enzyme solution is mixed with the substrate (50 µl) in the same buffer, and the mixture was incubated for 30 minutes at 37°C. The enzyme activity in each buffer was determined spectrophotometrically by UV at 415 nm. […] (b) pH stability. The stock enzyme solution was dialyzed against water to remove salts. The enzyme solution was adjusted to 0.6 u/10 µl with Tris-HCl buffer (pH 7.5). This solution (10 µl) was mixed with 40 µl each of the buffer listed in (a) and incubated for 30 minutes at 30°C. The enzyme sample (50 µl) was mixed with 100 µl of 500 mM Tris-HCl (pH 9.0) and 50 µl of substrate in water (1mg/ml), and the mixture was incubated at 37°C for 30 minutes to determine the residual enzyme activity. […] (c) Optimum temperature. Enzyme (0.6 u) in 150 µl of 50 mM Tris-HCl (pH 9.0) were incubated with p-nitrophenylsulfate (1 mg/ml, 50 µl) in the same buffer (pH 9.0) for 30 minutes at various temperatures (200 µl each). […] (d) Temperature stability. Enzyme preparations (0.6 u) in 50 mM Tris-HCl (150 µl, pH 9.0) were incubated for 15 minutes at various temperatures and then cooled in an ice bath. p-Nitrophenylsulfate (1 mg/ml, 50 µl) was added to the enzyme solution, and the mixture was incubated for 30 minutes at 37°C. […] (e) Effect of ions. Enzyme (0.6 u), p-nitrophenyl sulfate 4 mM, and ion 1 mM were dissolved in 200 µl of Tris-HCl (50 mM). The solution was incubated for 30 minutes at 37°C. p-Nitrophenol released was spectrophotometrically assayed by UV at 415 nm.
(f) Effect of enzyme inhibitors. The protocol used in (e) was followed with the exception that 1 mM of an enzyme inhibitor was used instead of a metal ion.

In order of rising “% Inhibit.” value:
1. O=C(O)CN(CCN(CC(=O)O)CC(=O)O)CC(=O)O [EDTA]  69%
2. O=C(O)CI [Iodoacetic acid]  96%

Same assay, conditions: 1 mM of an enzyme inhibitor; p-nitrophenyl sulfate 4 mM; 30 minutes at 37°C

In order of rising “% Inhibit.” value:
1. c1c[nH]cn1 [Imidazole]  14%
2. N[C@@H](CS)C(=O)O [Cysteine]  18%
3. OCCS [2-Mercaptoethanol]  22%
4. O[C@H](CS)[C@H](O)CS (racemic) [Dithiothreitol]  34%
5. CCN1C(=O)C=CC1=O [N-Ethylmaleimide]  35%
6. c1cnc2c(c1)ccc1cccnc12 [1,10-Phenanthroline]  60%
7. O=C(O)c1cc[c]([Hg][Cl])cc1 [p-Chloromercuribenzoic acid]  78%
8. O=S(=O)(F)Cc1ccccc1 [Phenylmethanesulfonyl fluoride]  81%
9. O=C(O)CC(O)(CC(=O)O)C(=O)O [Citrate]  87%

System: Es-2 sulfatase
Experiment: Effect of metal ions on sulfatase activity (p-nitrophenyl sulfate hydrolysis, UV at 415 nm)
Type: biochemical, Streptomyces sp. T109-3
Conditions: ion 1 mM; enzyme 0.6 u; p-nitrophenyl sulfate 4 mM; Tris-HCl 50 mM; 30 minutes at 37°C
Protocol: Sulfatase activity during purification is monitored by determining the conversion of p-nitrophenylsulfate into p-nitrophenol using spectrophotometric means. Specifically, the following assay method is used. 50 µl of a p-nitrophenylsulfate solution (1 mg/ml in 50 mM Tris-HCl, pH7.5), 50 µl of a sample, and 100 µl of 50 mM Tris-HCl, pH 7.5, are mixed and incubated for 30 minutes at 37°C. If the activity is weak, the incubation time is prolonged up to 18 hours. The liberated p-nitrophenol is determined spectrophotometrically at 415 nm. From standard curves of p-nitrophenol and protein concentrations, the unit or specific activity per mg of the enzyme is calculated. The protein concentration is determined by measuring the absorption at 280 nm throughout purification and, in case of homogeneous protein, by the Bradford method [Bradford, M., et al., Anal. Biochem., 1976, 72:248-254] using bovine serum albumin as the standard protein. A unit of sulfatase activity is defined as the amount of enzyme which can hydrolyze one nanomole of p-nitrophenyl sulfate to p-nitrophenol in one minute at 37°C at pH 7.5.
as §1

In order of rising “Inhibit. (%)” value:
1. BaCl2  17%
2. AlCl3  33%
3. NiCl2  41%
4. CuCl2  44%
5. FeCl3  49%
6. MnCl2  66%
7. CoCl2  66%
8. ZnCl2  82%
9. FeCl2  88%
10. [Cl][Hg][Cl] [HgCl2]  100%

In order of falling “Rel. Activity (%)” value:
1. CaCl2  213%
2. BaCl2  83%
3. AlCl3  67%
4. NiCl2  59%
5. CuCl2  56%
6. FeCl3  51%
7. MnCl2  34%
8. CoCl2  34%
9. ZnCl2  18%
10. FeCl2  12%
11. [Cl][Hg][Cl] [HgCl2]  0%
